Laboratory results: patent US11697818B2, “Pyruvate-responsive biosensor, and construction method and use thereof” (priority 2020, dated 2023)

Test system: strain 168-PR containing the plasmid PHT01-P43D-GFP
Assay: Specificity (orthogonality) of pyruvate biosensor towards inducing agents
Format: cell-based, Bacillus subtilis
Settings: 5 g of inducing agent added to the medium; strain 168-PR with PHT01-P43D-GFP
Experimental: 2. Detection method for Relative fluorescence intensity: The strain to be determined for the fluorescence intensity is streaked into LB solid medium containing chloramphenicol (5 μg/mL) in a plate. Single colonies are picked up and inoculated into LB liquid medium and incubated at 37° C. and 220 rpm for 12 h. Then the cell suspension is inoculated into 200 μL of LB liquid medium in a 96-well fluorescent microplate in an amount of 2% (V/V), and incubated at 37° C. and 900 rpm. The microplate is removed at different times, and the fluorescence intensity (excitation light: 488 nm, absorption light: 520 nm) and cell density (600 nm) are determined on the Cytation microplate reader (BioTek).

Structure (SMILES)	induction of the activity of the pyruvate biosensor
CC(C)S[C@@H]1O[C@H](CO)[C@H](O)[C@H](O)[C@H]1O [IPTG]	only pyruvate can significantly induce
O=C(O)CCC(=O)C(=O)O [α-ketoglutaric acid]	only pyruvate can significantly induce
CC(O)C(=O)O (stereo not shown) [lactic acid]	only pyruvate can significantly induce
O=C[C@@H](O)[C@H](O)[C@H](O)CO [arabinose]	only pyruvate can significantly induce
O=C(O)[C@@H](O)[C@@H](O)[C@H](O)[C@@H](O)C(=O)O [glucaric acid]	only pyruvate can significantly induce
CC(=O)O [acetic acid]	only pyruvate can significantly induce
OC[C@H]1O[C@@H](O[C@H]2[C@H](O)[C@@H](O)C(O)O[C@@H]2CO)[C@H](O)[C@@H](O)[C@H]1O (stereo partly shown) [lactose]	only pyruvate can significantly induce
O=C[C@H](O)[C@@H](O)[C@H](O)CO [xylose]	only pyruvate can significantly induce
CC(=O)C(C)O (stereo not shown) [acetoin]	only pyruvate can significantly induce
C[C@H](N)C(=O)O [alanine]	only pyruvate can significantly induce
